Data on 2 compounds can be found in US11833256B2, “Selective RARγ ligand-loaded nanoparticles for manipulation of targeted bone growth” (University Of Maryland, Baltimore, priority 2017, dated 2023).

In data set [1] the test system is canonical BMP signaling reporter Id1-Luc. The experiment in a line: Id1-luc reporter assay in primary chondrocytes. The format is cell-based, mouse. As for the experimental part:
(§1) Primary mouse epiphyseal chondrocytes were isolated from neonatal C57BL/6J mice according to known methods (Yasuhara et al., Lab. Invest. 91(12):1739-1752, 2011) and were plated on 48- or 96-well plates and serum-starved overnight. Cultures were co-transfected with canonical BMP signaling reporter Id1-Luc or retinoic acid response element (RARE)-Luc plasmids and phRG-TK (Promega™) using Lipofectamine LTX™ and Plus™ reagent (Invitrogen™) according to the manufacturer's protocol. Twenty four hours later, cells were treated with rhBMP-2 and/or retinoid and incubated for an additional 24 hours. Cells then were harvested and subjected to dual luciferase assay (Promega™). Firefly luciferase activity was normalized to renilla luciferase activity generated by phRG-TK.
Enhancement of BMP-Smad signaling by RARγ antagonists was confirmed by Id1-luc reporter assays. Cells were treated with the indicated doses of CD2665 or MM11253 in the absence or presence of 10 ng/mL rhBMP-2.

The subject of data set [2] is retinoic acid response element (RARE)-Luc. As to the kind of experiment: RARE-luc reporter assay in primary mouse chondrocytes. Format: cell-based. The settings on record: 10 nM RA added, 0.3% FBS DMEM. As for the experimental part: as §1
Monitoring activity of RARγ antagonists by RARE reporter assay. Cells were treated with indicated doses of CD2665 or MM11253. To detect the effect of RARγ antagonists in retinoid deficient culture condition (0.3% FBS DMEM), 10 nM RA was added to all cultures in experiments reported in FIG. 8A, FIG. 8B and FIG. 8C.
Primary mouse chondrocytes were isolated and transfected with the RARE-luc reporter gene by reverse transfection according to known methods. Details of the procedure are described in Cong et al., J. Biomater. Sci. Polym. Ed. 26(11):629-643, 2015. […]
In general terms: A reporter such as luciferase makes a cellular process visible.

The subject of data set [3] is ectopic bone formation in RARγ-null mice. The experiment in a line: Ectopic bone formation model in RARγ-null mice. Format: in vivo, mouse. Conditions: N=8. As for the experimental part: To verify specificity of this drug action, similar ectopic bone formation experiments were carried out with RARγ-null mice treated with vehicle or one of the antagonists (CD2665) (FIG. 13E).

For data set [4], the system named is pSmad1/5/8-positive cells (canonical BMP signaling). The experiment in a line: pSmad1/5/8 immunohistochemistry of ectopic BMP-Matrigel masses. The format is in vivo, mouse. The settings on record: 4 mg/kg on day 1 and 3; samples day 5. As for the experimental part:
Tissue samples were fixed in 4% paraformaldehyde overnight at 4° C., decalcified in 10% EDTA (for calcified samples only), processed for paraffin embedding, and serially sectioned at 6 μm-thickness. Sections were stained with hematoxylin and eosin (HE) for general profiling or with Alcian blue at pH 1.0 and eosin counter-staining. For immunohistochemical analysis, antigen retrieval was performed with 0.1% pepsin in 0.02 N—HCl for 10 minutes, and sections were incubated with blocking solution (0.1 M NaPB, 1% BSA and 10% normal goat serum) for 1 hour and then with primary antibodies against phospho-Smad1/5/8 (Cell Signaling Technology™, 9511, 1:100) overnight at 4° C. The antibodies were visualized using rabbit specific HRP/DAB (ABC™) detection kit (Abcam™, ab64261). After detection, sections were counter-stained with 0.5% methyl green.
There are reciprocal antagonistic relationships between the retinoid and BMP signaling pathways in several biological systems. In addition, the suppression of chondrogenesis and heterotopic ossification by RARγ agonists involved inhibition of canonical BMP signaling. Thus, it became important to determine if and how BMP signaling was affected in the various experimental approaches here. […]
First, the distribution of phosphorylated Smad1/5/8-positive cells was determined within regenerating tibial bone defect areas in wild type and RARγ-null mice (FIG. 6A). […]

Data set [5] is described as follows: Hydrophobicity of acetaminophen-capped prodrug derivative versus parent. The settings on record: acetaminophen-capped derivative vs parent retinoid. The format is physicochemical. An excerpt: In order to produce an in situ activatable, reversibly hydrophobized prodrug derivatives of a RARγ agonist, a pro-drug can be delivered in a nanoparticle formulation. […] However, the ionizable carboxylic group promotes the partitioning of the compound from the particle to the surrounding aqueous medium. […] The compound would be activatable upon release can increase the stability of the particle-cargo association and help achieve a more lasting and highly localized therapeutic effect. Such constructs are in essence mutual prodrugs or co-drugs, as they regenerate in one step the retinoid compound and acetaminophen, a biologically active “helper” agent, which can play an important supporting role in therapy.

Regarding `COCCOCOc1cc2ccc(-c3ccc(C(=O)O)cc3)cc2cc1C12CC3CC(CC(C3)C1)C2` [CD2665], the values for the Id1-luc reporter activity result in data set [1] (absence of exogenous rhBMP-2) and in data set [1] (presence of 10 ng/mL rhBMP-2) were “slightly increased” and “significantly enhanced”, respectively. For the same compound, the “RARE-luc reporter activity (antagonists)” value in data set [2] is recorded as “inhibited RARE-luc reporter activity”. Besides, the “ectopic bone formation in RARγ-null mice, drug vs vehicle” value in data set [3] is reported as “No significant differences in bone formation”. Besides, the “pSmad1/5/8-positive cells in ectopic BMP-Matrigel masses” value in data set [4] was “more numerous and obvious”.
With `CC1(C)CCC(C)(C)c2cc(C3(c4ccc5cc(C(=O)O)ccc5c4)SCCS3)ccc21` [MM11253], the results for the Id1-luc reporter activity result in data set [1] (absence of exogenous rhBMP-2) and in data set [1] (presence of 10 ng/mL rhBMP-2) were “slightly increased” and “significantly enhanced”, respectively. Moreover, the “RARE-luc reporter activity (antagonists)” value in data set [2] is recorded as “inhibited RARE-luc reporter activity”. The “more hydrophobic derivative if modified with acetaminophen” value in data set [5] came to 5 fold.
